The target in experiment [1] is T1, glycine binding site of NMDA receptors (Rattus norvegicus, UniProt P35439).
T1 construct: the cerebral cortex of an Slc-Wistar rat (250 to 300 g in weight) was homogenized; from tissue; host or cells: cerebral cortex of Slc-Wistar rat, washed and Triton X-100 treated membranes
Briefly: competitive binding to a glycine binding site of NMDA receptors ([3H]glycine). Also on record: species or system Slc-Wistar rat. The following applies: for IC50: [3H]glycine 100 nM, rat cerebral cortex membrane, 0° C., 10 minutes. The procedure:
The ability of the compounds of the present invention to bind to a glycine binding site of the NMDA receptors can be measured, for example, using competitive assay in vitro as described below.
A rat cerebral cortex is homogenized with a buffer solution, and repeatedly centrifuged and resuspended in a buffer to prepare a membrane sample. The membrane sample is mixed with a solution containing [^3 H] glycine and a compound of interest and incubated for a predetermined period of time. Then, the reaction of the mixture is terminated by dilution and filtration using filter paper. Radioactivity on the filter paper is measured by a liquid scintillation counter. Non-specific binding is measured with 1 mM of non-radioactive glycine to work out IC50.
Assay for competitive binding of 6-nitro-7-(4-oxo-4H-pyridin-1-yl)-1,4-dihydroquinoxaline-2,3-dione (Ia) to a glycine binding site of NMDA receptors.
First, the cerebral cortex of an Slc-Wistar rat (250 to 300 g in weight) was homogenized in 5 mM Tris acetic acid buffer in 20-fold volume (containing 1 mM EGTA, 0.1 mM PMSF, and 0.01% Bacitracin, pH 7.4). The cerebral cortex was centrifuged at 50,000×g for 30 minutes and resuspended in a buffer. This process was repeated four times. The final suspension was stored at -80° C. The frozen suspension was thawed at room temperature and incubated with 0.08% Triton X-100 solution at […] for 10 minutes. The resultant suspension was then washed twice and suspended in 50 mM Tris-acetate buffer (pH 7.4) to give a membrane sample. The membrane sample was mixed with 100 nM [^3 H]glycine and solutions in a series of concentrations of Compound Ia obtained in Example 1. The mixtures were incubated at 0° C. for 10 minutes. Each of the mixtures was diluted and filtered using Whatman GF/C filter paper so as to terminate the reaction, and radioactivity of ^3 H remaining on the filter paper was measured by a scintillation counter for liquid. […] IC50 value of Compound Ia was determined using YM900 (a compound of Example 15 described in WO92/07847) as a control in the same way as described above.

The target in another experiment is AMPA receptors. Briefly: competitive binding to AMPA receptors ([3H]AMPA). Also on record: species or system Slc-Wistar rat. The following applies: [3H]AMPA 30 nM, rat cerebral cortex membrane, 100 mM KSCN, 0° C., 30 minutes. The protocol:
The binding ability of the compounds of the present invention with respect to the AMPA receptors can be measured, for example, by the following competitive assay.
A rat cerebral cortex is homogenized with a buffer solution, and repeatedly centrifuged and resuspended in a buffer to prepare a membrane sample. The membrane sample is mixed with a solution containing [^3 H] AMPA and a compound of interest and incubated for a predetermined period of time. Then, the reaction of the mixture is terminated by dilution and filtration using filter paper. Radioactivity on the filter paper is measured by a liquid scintillation counter. Non-specific binding is measured with 1 mM of non-radioactive glutamate to work out IC50.
Assay for competitive binding of 6-nitro-7-(4-oxo-4H-pyridin-1-yl)-1,4-dihydroquinoxaline-2,3-dione (Ia) to AMPA receptors.
First, the cerebral cortex of an Slc-Wistar rat (250 to 300 g in weight) was homogenized in 30 mM Tris acetic acid buffer in 10-fold volume (containing 2.5 mM CaCl2, pH 7.1). […] Each of the mixtures was diluted and filtered using Whatman GF/C filter paper so as to terminate the reaction, and radioactivity of ^3 H remaining on the filter paper was measured by a scintillation counter for liquid. […] IC50 value of Compound Ia was determined using YM900 as a control in the same way as described above.

The test system of experiment [2] is glycine binding site of the NMDA receptors. The settings on record: in words; cited from earlier work.

Structures are written as SMILES.

The values below come from patent publication US5677305A, “Oxopyridinylquinoxaline derivative” (Shionogi & Co., Ltd., priority 1994, dated 1997).

The term IC50 denotes the concentration that gives 50% inhibition. A lower IC50 goes with greater potency. With `O=c1ccn(-c2cc3[nH]c(=O)c(=O)[nH]c3cc2[N+](=O)[O-])cc1` [Ia, 6-nitro-7-(4-oxo-4H-pyridin-1-yl)-1,4-dihydroquinoxaline-2,3-dione], in experiment [1] (Ia vs YM900, from Table 2), the “antagonistic effects as strong as that of YM900 (times)” value was “approximately ten”. Moreover, the results for the IC50 (in experiment [1]; at AMPA receptors) were 6.6 µM and 0.1 µM, respectively.
Regarding `O=c1[nH]c2cc([N+](=O)[O-])c([N+](=O)[O-])cc2[nH]c1=O` [DNQX, 6,7-dinitroquinoxaline-2,3-dione], in experiment [2], the “antagonistic effects on the glycine binding site of the NMDA receptors” value is “exhibit antagonistic effects on the glycine binding site of the NMDA receptors”.
`O=c1[nH]c2cc(-n3ccnc3)c([N+](=O)[O-])cc2[nH]c1=O` [YM900, 6-imidazolyl-7-nitroquinoxaline-2,3-(1H, 4H)-dione]: the IC50 was determined as 67 µM in experiment [1] and 0.28 µM at AMPA receptors.
For the compound `N#Cc1cc2[nH]c(=O)c(=O)[nH]c2cc1[N+](=O)[O-]` [CNQX, 6-cyano-7-nitroquinoxaline-2,3-dione], the “antagonistic effects on the glycine binding site of the NMDA receptors” value in experiment [2] is on record as “exhibit antagonistic effects on the glycine binding site of the NMDA receptors”.
